Patent US20200181284A1, “EPIGENETIC INHIBITORS FOR SENSITIZING HEMATOLOGIC OR OTHER MALIGNANCIES TO GLUCOCORTICOID THERAPY” (UNIVERSITY OF SOUTHERN CALIFORNIA, priority 2017, published 2020)

Key:
GR-HP1γ interaction = experiment: Proximity ligation assay of GR and HP1γ in A549 cells; type: cell-based, human
Experimental: The experiments were performed following the manufacturer's instructions as previously described. Cells were grown on coverslips in 12-well plates, fixed in methanol for 2 min, and then washed twice in PBS. Firstly, the samples were saturated using the blocking solution, then different pairs of primary antibodies (HP1γ (Abcam ab10480) and GR (Santa Cruz sc-393232) in order to analyze HP1γ-GR, G9a (Sigma G6919) and HP1γ (Abcam ab56978) in order to analyze HP1γ-G9a interaction and HA-Tag (6E2) (Cell signaling #2367) and HP1γ (Abcam ab10480) in order to analyze HA- HP1γ interaction) were incubated with the fixed cells for 1 h at 37° C. […] Afterwards, the samples were mounted with Duolink II Mounting Medium containing Dapi in order to counterstain nuclei, and then analyzed on Zeiss Imager.Z1 fluorescence microscope. For each sample interactions were counted for 1000 cells using Image J software [46b].
The results as shown in FIGS. 18A-18E generally highlight that G9a and GLP methylation is required for HP1γ-G9a/GLP-GR ternary complex formation. […] The detected interactions are indicated by red dots. […] The number of interactions detected by Image J analysis is shown as the mean±SEM of three independent experiments. p-value was determined using a paired t-test. **p≤0.01. […] Whole-cell extracts were analyzed for G9a, GLP, GR, HP1γ and β-actin expression by immunoblot. […]

hGLP = target: T1, hGLP (Homo sapiens, UniProt Q9H9B1); experiment: Methylation of HA-hGLP in Cos-7 cells (pan met-K immunoprecipitation/immunoblot); type: cell-based, African green monkey; details: 2 μM, 24 h
T1 construct: expressed in transfected cells; host or cells: Cos-7
T1 sequence (Q9H9B1 whole entry): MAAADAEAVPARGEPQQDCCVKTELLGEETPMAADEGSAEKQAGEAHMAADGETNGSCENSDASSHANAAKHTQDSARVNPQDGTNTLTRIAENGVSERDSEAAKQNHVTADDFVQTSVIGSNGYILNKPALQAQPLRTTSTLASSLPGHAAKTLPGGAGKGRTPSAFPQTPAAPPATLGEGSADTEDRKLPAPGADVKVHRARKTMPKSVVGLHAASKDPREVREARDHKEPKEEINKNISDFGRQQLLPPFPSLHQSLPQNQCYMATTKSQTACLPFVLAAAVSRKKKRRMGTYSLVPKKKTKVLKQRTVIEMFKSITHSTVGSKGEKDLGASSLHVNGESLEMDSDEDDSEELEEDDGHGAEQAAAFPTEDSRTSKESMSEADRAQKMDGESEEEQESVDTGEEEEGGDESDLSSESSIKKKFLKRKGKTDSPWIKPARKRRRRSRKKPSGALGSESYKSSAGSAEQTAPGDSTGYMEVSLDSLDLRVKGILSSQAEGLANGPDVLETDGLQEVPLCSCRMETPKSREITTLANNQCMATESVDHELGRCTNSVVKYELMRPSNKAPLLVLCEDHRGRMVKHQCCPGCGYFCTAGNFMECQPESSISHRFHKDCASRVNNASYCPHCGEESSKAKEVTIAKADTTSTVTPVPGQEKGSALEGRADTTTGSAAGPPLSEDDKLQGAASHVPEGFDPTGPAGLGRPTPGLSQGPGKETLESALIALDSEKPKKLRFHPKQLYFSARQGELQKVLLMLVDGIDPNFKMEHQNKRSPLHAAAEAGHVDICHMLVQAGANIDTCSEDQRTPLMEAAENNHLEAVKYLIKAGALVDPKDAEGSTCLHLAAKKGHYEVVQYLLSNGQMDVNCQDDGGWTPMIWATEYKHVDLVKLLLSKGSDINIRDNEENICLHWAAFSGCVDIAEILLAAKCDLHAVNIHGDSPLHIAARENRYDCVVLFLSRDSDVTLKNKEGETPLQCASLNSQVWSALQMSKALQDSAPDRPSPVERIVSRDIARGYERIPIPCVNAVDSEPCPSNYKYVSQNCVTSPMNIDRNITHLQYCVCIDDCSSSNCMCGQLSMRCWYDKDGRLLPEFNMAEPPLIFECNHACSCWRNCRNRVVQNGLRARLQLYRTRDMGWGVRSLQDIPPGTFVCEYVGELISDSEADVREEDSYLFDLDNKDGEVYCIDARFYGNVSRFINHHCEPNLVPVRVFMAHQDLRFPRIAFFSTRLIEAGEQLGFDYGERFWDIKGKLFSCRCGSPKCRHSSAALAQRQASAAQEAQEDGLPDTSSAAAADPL
Experimental: Cos-7 or A549 cells were seeded on 10-cm dishes the day before transfection. Cells were transiently transfected (where indicated) using Lipofectamine 2000 (Invitrogen) with 5 μg each of the indicated plasmids according to the manufacturer's protocol. […] Protein extracts were incubated with 1 μg of the indicated primary antibodies overnight at 4° C. with shaking. Protein A/G Plus Agarose (Santa Cruz sc-2003) beads were added and the mixture was incubated 2 hr at 4° C. The immunoprecipitates were separated on SDS-PAGE. […] In immunoprecipitation experiments 3% of the input of each sample was analyzed by immunoblot using the antibodies listed. […]

Structure (SMILES)	dex-induced interaction between GR and HP1γ in PLA (GR-HP1γ interaction; A549 cells treated with dex and JIB-04)	GR-HP1γ interaction in PLA (GR-HP1γ interaction; A549 cells, 2 μM UNC0646 24 h, 100 nM dex for the final 2 h)	GLP methylation in cells (hGLP)
Clc1ccc(N/N=C(\c2ccccc2)c2ccccn2)nc1 [JIB-04, 5-chloro-N-[(E)-[phenyl(pyridin-2-yl)methylidene]amino]pyridin-2-amine]	enhanced	–	–
COc1cc2c(NC3CCN(C4CCCCC4)CC3)nc(N3CCCN(C(C)C)CC3)nc2cc1OCCCN1CCCCC1 [UNC0646]	–	strongly decreased	reduced
